Bridges are numbered along the chain shown (N, C = ends). Where no end group is shown, it is not given here.
Tests used:
[1] = Absorbance spectra of free and Ca2+-bound chelators; assay type: physicochemical
Protocol: (§1) The titration was done at 22° C. with 10 mL of 100 mM KCl, 10 mM K-MOPS, 10 mM K2 H.HEEDTA, and 14 […] diazo-2 as starting materials, adjusting the pH to 7.24, recording the spectrum, and then discarding 1.0 mL of this solution and replacing with 1.0 mL of 100 mM KCl, 10 mM K.MOPS, 10 mM KCa.HEEDTA, 14 μM diazo-2, readjusting the pH to 7.24, and recording the spectra, which was then in 9 mM K2H.HEEDTA. Subsequent iterations to reach n mM KCa.HEEDTA, (10-n) mM HEEDTA, n=2-10, were done by discarding 10.0/(11-n) mL and replacing with equal volumes of the 10mM KCa.HEEDTA, 14 μM diazo-2 stock. After n=10 had been reached to give free Ca^2+ between 10^-5 and 10^-4 M, addition of 1 mM CaCl2 had no further effect on the spectrum. For clarity only six spectra are including in the figure, n=0, 2, 4, 6, 8, and 10. Each spectrum is labeled with the calculated free [Ca^2+ ] imposed by the HEEDTA buffer, assuming a log effective stability constant of 5.55 at pH 7.24.
(§2) The phenylacetate was produced by irradiating a 30 μM solution of diazo-2 in 100 mM KCl, 10 mM Tris.HCl, 10 mM K2 H.HEEDTA, pH 8.40, with Spectroline lamp at 365 nm to completion. The titration was then performed as in A but the pH was maintained at 8.40, at which the calculated log effective stability is constant for HEEDTA was 6.60.
Proton magnetic resonance spectra (^1 H NMR) were recorded on a Varian EM-390 90-MHz spectrometer in CDCl3 unless otherwise noted, and the chemical shifts are given in δ values relative to tetramethylsilane. Ultraviolet (UV) absorbance spectra were recorded on a Cary 210 or a Perkin-Elmer Lambda Array 3840 spectrophotometer at 20°±2° C. Melting points are in Centigrade and are uncorrected. Elemental analyses were performed by the Microanalytical Laboratory in the Department of Chemistry, University of California, Berkeley, Calif.

[2] = Mg2+ affinity in Mg/EGTA buffers; assay type: binding; settings: after photolysis; 0.1-0.15M ionic strength, pH 7.0-7.4, 20-23° C.; read-out: Kd (Mg2+), after photolysis
Protocol: (§3) Ca^2+ -binding constants for chelators before and after photolysis were determined by monitoring UV spectra during titration of EGTA or HEEDTA buffers to varying free Ca^2+ levels.
Free [Mg^2+ ] was likewise controlled by Mg/EGTA buffers, assuming an apparent dissociation constant for the Mg.EGTA complex (including its monoprotonated form) of 6 mM at pH 7.60 in 0.1M ionic strength; see R. Y. Tsien, et al. (1986) and A. E. Martell, et al. (1974).

[3] = Yield of high affinity chelator / low-affinity side product after photolysis; assay type: physicochemical
Protocol: Because of the direct conjugation of the dialkylamine moiety with the diazoketone group, diazo-2 has a large absorbance in the 350-400 nm range, which shifts 50 nm to shorter wavelengths on binding Ca^2+ (FIG. 1A). The dissociation constant for Ca^2+ is relatively high, at 2.2 μM, due to the electron withdrawing ability of the carbonyl group. Photolysis occurs at 365 nm with a quantum yield of 0.030. The peak at […] in zero Ca^2+ decreases to near baseline giving a spectrum similar to that of unsubstituted BAPTA, although a small peak remains at 355 nm (FIG. 1B). […] The reaction of diazo-2 with dilute aqueous acid should give the same product whose absorbance spectrum indeed matched that of the residual peak at 355 nm after photolysis in low Ca^2+. […] Once the extinction coefficient for the hydroxyacetyl derivative was known, the amount of the side product arising from photolysis is calculated to be about 10%.

[4] = Quantum efficiency and completion of photolysis; assay type: physicochemical
Protocol: Spectra were obtained after 0, 2, 5, 9, 16, 28, 46, 80, 150, 285, 505 and 903 sec of 365-nm illumination at 7.82×10^- 9 einsteins cm^-2 s^-1 from Spectroline lamp. For clarity only the 0-, 9-, 28-, 46-, 80-, 150-, and 505-s spectra are reproduced herein. The 505- and 903-s spectra were identical, confirming completion of photolysis after those times. Solutions were at 22±2° C.
The method was as described in FIG. 1B except that the EGTA was replaced by 2 mM CaCl2, and spectra were measured after 0-, 50-, 100-, 203-, 412-, 840-, 1730-, 4080-, and 8000-s illumination. The last two spectra were identical, confirming completion. For clarity the 50- and 8000-s spectra are omitted.
The photolysis quantum efficiencies of diazo chelators were determined by alternately irradiating a buffered solution of the substrate with a known intensity of longwave UV light, and measuring the absorbance spectrum, in apparatus described by S. R. Adams, et al. (1988), supra.

[5] = Ca2+ affinity by UV spectra during titration of EGTA or HEEDTA buffers; assay type: binding
Protocol: as §1, §2, §3
Either the ratio of, for example, [Ca.EGTA] to free [EGTA] was adjusted at a constant pH, or the pH was varied while [Ca.EGTA]=[EGTA]. These two approaches gave equivalent answers for pH>7 whenever directly tested, because of the pH insensitivity of BAPTA-like ligands (see FIG. 1 legend for more details). The apparent dissociation constants of Ca.EGTA and Ca.HEEDTA were calculated as described by R. Y. Tsien (1980); see also R. Y. Tsien, et al. (1986), S. R. Adams, et al. (1980), Grynkiewicz, et al., (1985), and Jackson, et al. (1987).

REF52 fibroblast cell = assay: Intracellular free Ca2+ in REF52 fibroblasts on vasopressin stimulation and UV photolysis (fluo-3); assay type: cell-based, Fisher rat; settings: 50 nM [arg8]-vasopressin
From the text: The tetraacetoxymethyl esters of diazo-2 and diazo-3 were synthesized. The acetoxymethyl (AM) groups mask the negative charges on the carboxylate functions, so the AM ester of diazo-2 and diazo-3 can easily diffuse across the cell membrane, which is largely impermeable to ions. Once inside the cell, non-specific esterases in the cell hydrolytically cleave the AM esters and restore diazo-2 and diazo-3 to their tetracarboxylate forms, which being polyanions, are trapped within the cell. […] Prior to the start of data acquisition (t=0), the REF52 fibroblast cell was loaded with diazo-2 and fluo-3. […] Its fluorescence quantum yield is enhanced about 40-fold by Ca^2+ binding, which occurs with a Kd of 400 nM.
Prior to the start of data acquisition, the REF52 fibroblast cell was loaded with fluo-3 and diazo-2 by incubation for 30 min at 25° C. DME medium containing 1 μM diazo-2/AM and 10 μM fluo-3/AM. Acquisition of fluo-3 fluorescence intensity images was begun at time 0. The fluorescence intensity data was converted to intracellular Ca^2+ concentrations using a calibration procedure previously described. The event markers correspond to 1) stimulating the cell with 50 nM [arg^8 ]-vasopressin,and 2) flashing the cell for 1 s with UV light.
The experimental conditions were the same as in (A) except that the cell wa loaded with fluo-3 and diazo-3 (instead of diazo-2) by incubation for 90 min at 25° C. in DME medium containing 10 μm fluo-3/AM and […] diazo-3/AM. The event markers correspond to 1) stimulating the cell with 50 nM [arg^8 ]-vasopressin, and 2) flashing the cell for 1 s of UV light.
For preliminary biological tests, Fisher rat embryo fibroblast of the REF52 cell line were cultured as described by J. P. Y. Kao, et al. (1989).
For testing diazo-2, REF52 cells were incubated for 30 min at 25° C. in Dulbecco's modified Eagle's medium, buffered at pH 7.4 with 20 mM HEPES and containing 1 μM diazo-2/AM and 10 μM fluo-3/AM. For control experiments using diazo-3, the cells were incubated for 90 min at 25° C. in DMEM, buffered to pH 7.4 with 20 mM HEPES and containing 1 μM diazo-3/AM and […] fluo-3/AM. After loading, the cells were gently washed, transferred into Hanks' Balanced Salt Solution containing 0.2 mM sulfinpyrazone to inhibit non-specific organic anion transport (see Tsien, 1989), and mounted on a 25° C. microscope stage for experimentation.
Flash photolysis of trapped cellular diazo-2 and the concomitant monitoring of intracellular free Ca^2+ concentration with fluo-3, a fluorescent Ca^2+ indicator, were performed using methodology and instrumentation described in A. Minta, et al (1989) and J. P. Y. Kao, et al. (1989). Briefly, output form a Xe arc lamp was passed through a monochromator to yield the 490 nm light used to probe the fluo-3 trapped intracellularly. The fluo-3 fluorescence images of cells were recorded using a SIT TV camera. Images were stored on a high-resolution monochrome laser disc recorder (Panasonic TQ-2028) for delayed processing. Photolyses were performed by briefly moving a chopper mirror to send broad-band UV from an XBO 75 W xenon arc lamp and UG-2 filter into the microscope instead of 490 nm fluo-3 excitation. The microscope objective (Nikon UV-CF, 40X) was chosen for its high UV transmission and numerical aperture (1.3). […] The same computer was used to analyze the fluorescence images acquired during the experiment.

Compound: [N-]=[N+]=CC(=O)c1ccc(N(CC(=O)O)CC(=O)O)c(OCCOc2cc(C(=O)C=[N+]=[N-])ccc2N(CC(=O)O)CC(=O)O)c1 [diazo-4, 1,2-bis(2-bis(carboxymethyl)amino-5-(diazoacetyl)phenoxy)ethane]
- εmax, +Ca2+ ([1]; +Ca2+, at λmax): 42.3 10^-3, M^-1 cm^-1
- λmax, +Ca2+ ([1]; +Ca2+, dominant peak at longest wavelength): 320 nm
- εmax, free ([1]; free (zero Ca2+), at λmax): 46.0 10^-3, M^-1 cm^-1
- λmax, free ([1]; free (zero Ca2+), dominant peak at longest wavelength): 371 nm
- Kd [2]: 2600 µM
- Photolysis yield (yield of high affinity Ca2+ chelator after photolysis) ([3]; after photolysis): 88
- low-affinity side product on complete photolysis, expected ([3]; complete photolysis, expected): 19%
- low-affinity side product on complete photolysis, measured ([3]; residual absorbance at 355 nm): 20%
- quantum yield relative to diazo-2 ([4]; compared with diazo-2): approximately half that of diazo-2
- Φ quantum efficiency of photolysis, +Ca2+ ([4]; saturating [Ca2+]): 0.015
- Φ quantum efficiency of photolysis, free ([4]; zero [Ca2+]): 0.015
- Kd ([5]; after photolysis, 0.1-0.15M ionic strength, 20-23° C., read-out: Kd (Ca2+), after photolysis): 0.055 µM
- Kd ([5]; before photolysis, 0.1-0.15M ionic strength, pH 7.0-7.4, 20-23° C., read-out: Kd (Ca2+), before photolysis): 89 µM
- change in Ca2+ affinity upon photolysis ([5]; complete photolysis): 1600 fold

Compound: Cc1ccc(N(CC(=O)O)CC(=O)O)c(OCCOc2cc(C(=O)CO)ccc2N(CC(=O)O)CC(=O)O)c1 [para-(2-hydroxyacetyl) derivative]
- amount of side product arising from photolysis ([3]; hydroxyacetyl derivative, from photolysis of diazo-2, calculated): about 10%
- photosensitivity (in words) ([4]; product of diazo-2 with dilute aqueous acid): complete lack of photosensitivity
- Kd ([5]; side product after photolysis of diazo-2, from deviation of Hill plot, read-out: dissociation constant of side product): ~1 µM

Compound: [arg^8 ]-vasopressin: stimulus of the REF52 cell, 50 nM (CYFQNCPRG-NH2; disulfide 1-6; UniProt P01185 20-28, looked up) [reference compound]
- [Ca2+]i response to stimulation (in words) (REF52 fibroblast cell): sharp but transient rise
- [Ca2+]i plateau after stimulation (REF52 fibroblast cell; before UV): about 200 nM

Reference: patent US5141627A, “Chelators whose affinity for calcium ion is increased by illumination” (The Regents of the University of California, priority 1989, dated 1992)
